Assay: in vitro
Details: human, hela cells, % viability

SMILES	viability at 28.5 h, 10 µM
COc1ccc(OCCCN)c(C(=O)N2CCc3nc[nH]c(=O)c3C2)c1 [CBK307361]	97.2%
Cc1c(C(=O)N2CCC(c3nc(C)n4ccsc34)CC2)cnn1C [CBK285201]	111%
CC(C)Nc1nc2cc(Cl)c(Cl)cc2nc1OCCN(C)C [CBK113419]	103%
CC(C)c1ccc(OCCc2cc(C3CCN(C(=O)CC4CCCC4)C3)n[nH]2)cc1 (stereo not drawn) [CBK286129]	102%
O=C(NCCCN1CCOCC1)C1CCCN1S(=O)(=O)c1ccc(Cl)cc1 (stereo not drawn) [CBK269944]	92.1%
CCC(CO)Nc1cncc(-c2cccc(N)c2)n1 (stereo not drawn) [CBK065278]	103%
Cc1ccc(S(=O)(=O)CCC(=O)Nc2ccc3sc(C)nc3c2)cc1 [CBK287706]	99.3%
O=C(O)c1c2c(nc3ccccc13)C(=Cc1ccc3c(c1)OCCO3)CC2 [CBK297479]	96.3%
O=C1NCCc2c1[nH]c1c(Cl)cccc21 [CBK015762]	78.2%
O=C(Nc1nnc(-c2cccs2)o1)c1ccc(Cl)cc1 [CBK287600]	96.4%
CCn1cnc2c1CCC(CN/C(=N/C(=O)c1ccccc1)NC)C2 (stereo not drawn) [CBK010036]	103%
Cc1cc(C)n(CC(=O)Nc2ccccc2-n2ccnc2)n1 [CBK283079]	101%
C=CCNC(=O)CN1CCC(c2ccc(OC)cc2)CC1 [CBK283560]	106%
N#C/C(=N/Nc1ccc(Br)cc1)C1=NC(=O)CS1 [CBK018747]	96%
Cn1cc([C@H]2C[C@@H](O)[C@@H](CO)O2)c(=O)n(C)c1=O [CBK201272]	97.3%
CC(Oc1cccc2ccccc12)C(=S)N(C)c1ccccc1 (stereo not drawn) [CBK016158]	88.2%
COc1nnc(-c2ccc(N3CCOCC3)c(NC(=O)COc3cccc(C)c3)c2)c2ccccc12 [CBK266207]	81.9%
COc1cc2c(cc1OC)/C(=C(\C(=O)Nc1ccccc1)C(=O)N1CCCCC1)NC(C)(C)C2 [CBK087103]	94.5%
Cc1oc(NC(=O)CN2CCN(c3ncccn3)CC2)c(C#N)c1C [CBK305569]	94.6%
CC(C)c1nc(CN2CCN(c3ccc4nncn4n3)CC2)cs1 [CBK306219]	102%
O=C(NCc1cccs1)c1ccc(-c2ccoc2)nc1 [CBK156269]	106%
CC(c1ccco1)N(C)Cc1c[nH]nc1-c1ccc(O)cc1 (stereo not drawn) [CBK283303]	89%
CCc1ncc(C(=O)N(Cc2ccccn2)CC2CCCO2)cn1 (stereo not drawn) [CBK307077]	95.1%
COc1ccc(C2c3ccccc3C[N+]3(C)CCCN23)cc1 (stereo not drawn) [CBK008769]	95.7%

SMILES	viability at 28.5 h, 10 µM
CC(=O)Nc1ccc(CCOc2nccnc2-c2ccc(C)cc2C)cc1 [CBK106985]	96.7%
O=C(O)c1cc(NS(=O)(=O)c2ccc([N+](=O)[O-])cc2)ccc1O [CBK296077]	110%
COc1ccc(N2CCN(C(=O)CCC(F)(F)F)CC2)cc1 [CBK091419]	100%
O=C(c1ccccc1)N1CCCCC1 [CBK012821]	99.1%
Cc1cc(C)nc(SCc2c(C)c(C)c(CSc3nc(C)cc(C)n3)c(C)c2C)n1 [CBK262070]	109%
Cc1nn(C)cc1-c1cncn1CCCN1CCCCC1 [CBK281493]	96%
CCCn1ccnc1CNc1nc(C)nc2c1c(C)nn2C [CBK307459]	85%
c1cnc(OC2CCN(CC3CCCCC3)CC2)c(OCCN2CCOCC2)n1 [CBK082941T]	87.3%
CC(C(=O)N1CCC2(CC1)NC(=O)c1ccccc1N2)(c1ccccc1)c1ccccc1 [CBK286308]	108%
CCn1c2cc(C)oc2c2cn[nH]c(=O)c21 [CBK284230]	76.1%
CCC(=O)NNC(=O)c1cc(O)nc2ccccc12 [CBK263495]	98.1%
CCCCn1nnnc1NCc1cccc(OC)c1OC [CBK288091]	104%
O=C(Nc1ccccc1)c1ccc(-c2ccccc2)cc1 [CBK261346]	107%
O=C(c1c[nH]c(=O)c(Cl)c1)N1CCCCC1CN1CCOCC1 (stereo not drawn) [CBK304416]	119%
COC(=O)c1ccc(-c2cc3ccccc3o2)nc1 [CBK149228T]	85.9%
Cc1nc(NCCCn2ccnc2)c2ccccc2n1 [CBK051987]	95.1%
CCn1c(CCCNC=O)nc2ccccc21 [CBK269551]	86.2%
N#C/C(=C\c1ccc(-c2ccc(S(N)(=O)=O)cc2)o1)c1nc2ncc(Br)cc2[nH]1 [CBK266288]	97.6%
Cc1c(NC(=O)CSCc2ccc(Cl)cc2Cl)cccc1C(=O)O [CBK131704]	104%
Cc1cccc(N2CCN(C(=O)CCc3ccsc3)C(C)C2)n1 (stereo not drawn) [CBK304069]	96.6%
Cn1nc(C2CCN(C(=O)CCc3ccccc3)CC2)c2cccnc21 [CBK285050]	103%
FC(F)(F)c1ccncc1-n1cccc1 [CBK021909]	85.9%
COC(=O)CCn1c(=O)c2c(nc3oc(C)c(C)n32)n(C)c1=O [CBK306033]	109%
Cc1cccc(OCC(C)NC(=O)NCCc2cnn(C)c2)c1 (stereo not drawn) [CBK304887]	98.5%

SMILES	viability at 28.5 h, 10 µM
Cc1cc(Br)ccc1-n1sc2ccccc2c1=O [CBK116239]	87%
Cn1cc(-c2nc(C3COCCN3C(=O)c3cccc(Cl)c3)no2)cn1 (stereo not drawn) [CBK305443]	80.1%
COc1cc(/C=C2\N=C(c3cc(Cl)ccc3OC)OC2=O)ccc1OC(=O)c1ccccc1 [CBK265069]	104%
CSc1cccc(NC(=O)N2CCN(C(=O)C3CCCO3)CC2)c1 (stereo not drawn) [CBK043283]	100%
O=C1N/C(=N/N=C\c2cccc([N+](=O)[O-])c2)SC1Cc1ccc(Br)cc1 (stereo not drawn) [CBK263125]	101%
N=C(N)NC(=N)NCCc1c[nH]c2ccccc12 [CBK267706G]	89.3%
O=C(CCc1ccccc1)NC(=S)Nc1ccc(-c2nc3ccccc3[nH]2)cc1 [CBK267472]	77.1%
Cc1c(C(=O)N2CCNC(=O)C2C(C)C)cnn1-c1ccc(Br)cc1 (stereo not drawn) [CBK306472]	91.5%
CC(C)NC(=O)C[C@@H]1CCNC[C@@H]1Cc1cc(-c2ccccc2)on1 [CBK289147]	83.7%
CCN(CCO)C(=O)c1cccc(-c2cnn(C(F)F)c2C)c1 [CBK307519]	95.5%
CC(C)(C)OC(=O)N1CCC(C(=O)NCc2ccccn2)CC1 [CBK305696]	103%
C=CCN1C(=O)CC2(C1=O)C(=O)N(CCCN(C)S(C)(=O)=O)c1ccc(Cl)cc12 (stereo not drawn) [CBK075432]	97.3%
O=C(CCCCCN1C(=O)c2ccccc2C1=O)NO [CBK288514]	80.2%
O=C(Nc1ccccn1)NC1CCS(=O)(=O)C1 (stereo not drawn) [CBK021330]	99.9%
CC(C)c1nc(-c2cc3ccccc3nc2O)no1 [CBK287964]	112%
O=C(C1CC1)N1CCC(C(=O)N(Cc2ccco2)c2ccccc2)CC1 [CBK298269]	85.8%
OC1(c2nnsc2-c2ccccc2)CCCC1 [CBK007956]	90.2%
CSc1ncnc2c1CC=N2 [CBK007532]	96.4%
Cc1cc(C)c2c(N)c(C(=O)C(C)(C)C)sc2n1 [CBK115341]	81.3%
CN(C)c1ccc(-c2ccnc3nc(N)ccc23)cc1 [CBK067640]	85.8%
O=C(Nc1ccccc1[N+](=O)[O-])c1ccc(Cl)c(S(=O)(=O)N2CCC(C(=O)O)CC2)c1 [CBK265180]	101%
NCCNC(=O)c1cc(-c2ccc(Cl)cc2)[nH]n1 [CBK160975]	110%
COc1nccnc1N1CCN(CCCC#N)CC1 [CBK084225]	86.9%
CCNS(=O)(=O)c1ccc2c(c1)N(Cc1ccc(CO)o1)CC2 [CBK306158]	83.8%

SMILES	viability at 28.5 h, 10 µM
Cc1cc(-c2ccccc2)nn(CCN2CCOCC2)c1=O [CBK023022C]	88%
CC(C)Oc1ncc(C(=O)Nc2ccc(OCCC(N)=O)cc2)cc1Cl [CBK305750]	102%
NC1=NNC2=C(c3ccc(Cl)cc3Cl)NNN12 [CBK093660]	86.4%
CC(=O)Nc1ccc(F)c(NC(=O)NCCN2CCCOC2=O)c1 [CBK307166]	92.8%
O=C(COc1cccnc1)N1CCN(C(=O)c2ccco2)CC1 [CBK144482]	96.7%
CCc1nc2c(OCCOC)cccn2c1N(C)C(=O)c1ccccc1F [CBK147722]	91.3%
CCn1cc(-c2cncn2CCCOc2cccc(C)c2)cn1 [CBK281760]	90.5%
O=C(Cc1ccc(F)cc1)NCCn1nc(-c2ccco2)ccc1=O [CBK283706]	86.4%
Nc1cc2ccccc2c(-c2ccncc2)n1 [CBK085708]	99.1%
CCC(=O)Nc1nc2ccccc2n1CCCN(C)C [CBK263492]	102%
Cn1c(CN2CCN(C(=O)c3ccco3)CC2)nc2cc([N+](=O)[O-])ccc21 [CBK268473]	108%
Nc1ncc(-c2ccoc2)nc1N1CCN(CCO)CC1 [CBK063428]	98.8%
NC(=O)C1CCN(CC(O)COc2ccc(-c3ccccc3)cc2)CC1 (stereo not drawn) [CBK269528]	89.9%
Cc1ccc(S(=O)(=O)Nc2nc(C)c(C(=O)N3CCN(C)CC3)s2)cc1 [CBK045812]	88.3%
Cc1ccccc1CNCCNCCO [CBK278293C]	98%
NS(=O)(=O)c1ccc(NC(=O)c2cc([N+](=O)[O-])ccc2N2CCOCC2)cc1 [CBK268972]	101%
Cc1[nH]c2ccccc2c1C(=O)CSc1nncc2ccccc12 [CBK297912]	92.1%
Cn1nccc1NS(=O)(=O)c1ccc(Br)cc1C(F)(F)F [CBK062082]	104%
Cc1c(C(=O)N2CCC[C@@H]2CO)nnn1Cc1ccc(F)cc1F [CBK304071]	89.2%
CC(Oc1cccc(Br)c1)c1nc(-c2ccc(-n3cccc3)cc2)no1 (stereo not drawn) [CBK293986]	102%
COc1cc(Cl)cc(C2NC(=S)NC(c3ccccc3)=C2C(C)=O)c1OCC(=O)O (stereo not drawn) [CBK268801]	98.3%

— PMC12040169 (PLOS Biology, 2025)
